Test results: patent publication US20100048727A1, “PERFLUOROKETONE COMPOUNDS AND USES THEREOF” (priority 2007, published 2010)

Assays:
[1] = system: inflammatory cytokines and chemokines in spinal cord; test: Mouse Inflammation antibody array on spinal cords of EAE mice; assay type: in vivo; settings: peak stage (day 18)
Description: Mouse Inflammation antibody array. Spinal cords were removed from vehicle- and FKGK11-treated animals at the peak stage of disease, and were then homogenized and centrifuged at 1000×g. The proteins were extracted and analyzed using the RayBio® Mouse Inflammation Antibody Array 1.1 (Cat. #0106008/AAM-INF-1; RayBiotech Inc.; Norcross, Ga.), which simultaneously detects 40 cytokines and other related proteins. Densitometry analysis was performed to detect differences between the various inflammatory mediators.
To further examine the effects of iPLA2 inhibitor treatment, the expression of 40 inflammatory cytokines and chemokines was assessed using the RayBio® Mouse Inflammation Antibody Array 1.1 (RayBiotech Inc., Norcross, Ga, Cat. #0106008/AAM-INF-1). The analysis was carried out on spinal cords taken from the peak stage of clinical disability (day 18), from mice treated with either a vehicle control, or the iPLA2-specific inhibitor FKGK11.

[2] = target: T1, GVIA iPLA2 (Homo sapiens, UniProt O60733); test: standard GVIA iPLA2 activity assay (DPPC/Triton X-100 mixed micelles); assay type: biochemical; settings: 0.091 mole fraction; mean and standard error, n = 3
T1 sequence (O60733 1-806): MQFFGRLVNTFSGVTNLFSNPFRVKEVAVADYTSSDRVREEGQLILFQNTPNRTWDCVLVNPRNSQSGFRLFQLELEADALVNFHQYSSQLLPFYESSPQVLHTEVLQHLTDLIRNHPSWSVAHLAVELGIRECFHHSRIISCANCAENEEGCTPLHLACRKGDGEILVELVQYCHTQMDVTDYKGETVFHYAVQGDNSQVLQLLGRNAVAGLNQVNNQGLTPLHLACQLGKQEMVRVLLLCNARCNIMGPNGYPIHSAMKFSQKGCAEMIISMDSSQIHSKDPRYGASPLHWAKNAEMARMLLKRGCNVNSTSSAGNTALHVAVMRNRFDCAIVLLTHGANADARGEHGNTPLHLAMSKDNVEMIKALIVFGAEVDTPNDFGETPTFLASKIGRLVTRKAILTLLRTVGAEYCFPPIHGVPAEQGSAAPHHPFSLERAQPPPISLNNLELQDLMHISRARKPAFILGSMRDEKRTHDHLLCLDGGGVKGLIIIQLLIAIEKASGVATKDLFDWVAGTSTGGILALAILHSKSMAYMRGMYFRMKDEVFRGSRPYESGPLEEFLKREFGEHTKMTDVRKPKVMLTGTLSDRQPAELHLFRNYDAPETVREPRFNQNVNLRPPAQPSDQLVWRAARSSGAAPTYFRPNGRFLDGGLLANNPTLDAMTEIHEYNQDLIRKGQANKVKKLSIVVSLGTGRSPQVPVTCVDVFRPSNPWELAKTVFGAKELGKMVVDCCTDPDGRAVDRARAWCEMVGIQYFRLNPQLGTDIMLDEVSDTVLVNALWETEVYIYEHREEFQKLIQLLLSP
Description: Inhibition of phospholipase A2 by perfluoroketone compounds. […] (2002) J. Med. Chem. 45: 2891-2893; Kokotos, G. et al. (2004). J. Med. Chem. 47: 3615-3628). The standard GVIA iPLA2 activity assay utilizes DPPC/Triton™ X-100 mixed micelles at a ratio of 1:4 as previously described (Stephens D. et al. (2006). J. Med. Chem., 49: 2821-2828). GV sPLA2 activity was measured in an assay similar to the assays for GIVA cPLA2 and GVIA iPLA2.

SMILES: O=C(CCCCc1ccccc1)C(F)(F)C(F)(F)F [FKGK11, 1,1,1,2,2-Pentafluoro-7-phenyl-3-heptanone]
- IL-10 expression [1]: increase
- number of chemokine proteins with marked reduction ([1]; of 15 chemokines increased in vehicle-treated control): 11
- number of pro-inflammatory cytokines with reduced expression ([1]; of 17 cytokines increased in vehicle-treated control): 13
- Average percent inhibition GVIA iPLA2 [2]: 98 ± 16%
